As a reminder, the IC50 is the concentration needed to halve the response being measured. Lower therefore signals greater potency in that assay.

This note sets out measurements from PMC11942905, “Identification of a Selective Inhibitor of Human NFS1, a Cysteine Desulfurase Involved in Fe-S Cluster Assembly, via Structure-Based Virtual Screening” (International Journal of Molecular Sciences, 2025).

For experiment [1], the system named is succinate dehydrogenase (SDH). The experiment can be described thus: Succinate dehydrogenase activity in A549 cells. It is filed as cell-based, human. The following applies: 50 µM. As for the experimental part: (§1) The activity of succinate dehydrogenase (SDH) in cells was determined using an SDH activity assay kit (Solarbio, Beijing, China) according to the manufacturer’s instructions. The optical density at 600 nm (OD600) was measured using a multifunctional microplate reader in 96-well plates. One unit of SDH activity was defined as the amount of enzyme catalyzing the consumption of 1 nmol of 2,6-dichlorophenol indophenol per minute at 37 °C [43]. The activity of aconitase (ACO) was measured as previously described, with some modifications. The cells were washed three times with pre-cooled PBS and lysed with lysis buffer containing 50 mM of Tris-HCl (pH 8.0), 0.2% Triton X-100, 0.6 mM of MnCl2, 5 mM of citrate, and 1 mM of PMSF. The aconitase activity was measured by monitoring the formation of cis-aconitate from isocitrate at 240 nm in 50 mM of Tris-HCl (pH 8.0) containing 20 mM of DL-trisodium isocitrate at 37 °C. An extinction coefficient of 3600 M^−1 cm^−1 at 240 nm was used to calculate the cis-aconitate concentration. One unit of ACO activity was defined as the amount of enzyme catalyzing the generation of 1 nmol of cis-aconitate per minute at 37 °C.

The target in another experiment is T1, NFS1 C158A (Homo sapiens, UniProt Q9Y697, C158A).
T1 construct: His tag (N); made in house; host or cells: E. coli BL21(DE3)
Description: H2S-producing assay, NFS1 C158A mutant. It is filed as biochemical. As for the experimental part:
To further validate the accuracy of the simulated results, the residues Cys158, Glu387, Lys157, and His156 were mutated to alanine using site-directed mutagenesis.
For the expression and purification of NFS1Δ1-55/ISD11 in E. coli, the plasmid pNFS1-ISD11 was transformed into BL21(DE3) cells. The cells were grown at 37 °C in 1 L cultures of LB medium containing chloramphenicol (50 μg/ml) until the optical density at 600 nm (OD600) reached 0.6–0.8. Protein expression was induced by adding 0.1 mM isopropyl β-D-1-thiogalactopyranoside (IPTG), followed by an additional 12 h of incubation at 25 °C. The cells were harvested by centrifugation at 8000 rpm for 10 min at 4 °C, then resuspended in lysis buffer containing 50 mM phosphate-buffered saline (PBS, pH 7.4), 500 mM NaCl, 100 mg/L lysozyme, 30 mM imidazole, and 1 mM phenylmethanesulfonyl fluoride (PMSF). The resuspended cells were incubated on ice for 1 h, followed by sonication using an Ultrasonic Cell Disruption System (Scientz, Ningbo, China). The supernatant was obtained by centrifugation at 12,000 rpm for 30 min at 4 °C and was loaded onto a HisTrap FF column (GE Healthcare, Chicago, MA, USA) pre-equilibrated with lysis buffer. […] The protein concentration was measured using a BCA protein assay reagent kit (TransGen Biotech, Beijing, China).

The test system of the next experiment is aconitase (ACO). The experiment can be described thus: Aconitase activity in A549 cells. It is filed as cell-based, human. The following applies: 50 µM. As to the method: as §1
Experiment [2] concerns A549 cells. Description: Cellular iron content by atomic absorption spectroscopy. It is filed as cell-based, human. The conditions noted are these: 50 µM, 48 h. As for the experimental part:
A549 cells were seeded in a 6-well plate and grown to 40–60% confluence. […] The cells were then washed three times with PBS and digested with 0.25% trypsin (Servicebio, Wuhan, China) for 2 min. The cells were divided into two equal groups: group A and group B. In group A, the cells were lysed with RIPA lysis buffer supplemented with 1 mM of PMSF to extract the total proteins. Protein concentrations were measured using a BCA protein assay reagent kit. In group B, the cells were treated with concentrated nitric acid at 70 °C for 2 h. Once the cells were completely nitrated, the temperature was increased to 150 °C until the nitric acid had completely evaporated. Subsequently, the samples were diluted to 10 mL with a solution containing 1% HNO3 and 0.1% KCl, and the iron levels were measured using atomic absorption spectroscopy (AAS; Analytik Jena AG, Jena, Germany). The iron content was calculated based on the standard curve, and the values were normalized to the protein concentration.

Another experiment has as its system BEAS-2B cells. Description: CCK-8 cell viability assay, BEAS-2B. The format is cell-based. The conditions noted are these: Homo sapiens, CCK-8, 72 h. As for the experimental part:
(§2) Human bronchial epithelial cells (BEAS-2B) and human lung adenocarcinoma A549 cells were purchased from the Institute of Biochemistry and Cell Biology, Chinese Academy of Sciences (Shanghai, China). BEAS-2B and A549 cells were cultured in DMEM supplemented with 10% (v/v) fetal bovine serum and 1% (v/v) penicillin–streptomycin solution at 37 °C in a humidified atmosphere containing 5% CO2. The half-maximal inhibitory concentration (IC50) values of the selected compounds against BEAS-2B and A549 cells were determined using the CCK-8 assay. Briefly, the cells were seeded into 96-well culture plates at a density of 5 × 10^3 cells per well. After 12 h of culture, fresh medium containing varying concentrations of the selected compounds dissolved in DMSO was added for an additional 72-hour incubation. Subsequently, 10 μL of CCK-8 solution was added to each well, followed by a further 1.5-h incubation at 37 °C. The optical density at 450 nm (OD450) for each well was measured using a microplate reader. Medium containing DMSO alone was used as the control group. Cell viability was calculated as the percentage of the OD450 of the experimental group compared to that of the control group, which was set at 100%.
(In general: Tetrazolium assays rely on reduction of a dye to a coloured formazan, in cell work by metabolically active cells.)

For experiment [3], the system named is A549 cells. Description: CCK-8 cell viability assay, A549. It is filed as cell-based, human. As to the method: as §2

T1 sequence (Q9Y697 56-457 C158A): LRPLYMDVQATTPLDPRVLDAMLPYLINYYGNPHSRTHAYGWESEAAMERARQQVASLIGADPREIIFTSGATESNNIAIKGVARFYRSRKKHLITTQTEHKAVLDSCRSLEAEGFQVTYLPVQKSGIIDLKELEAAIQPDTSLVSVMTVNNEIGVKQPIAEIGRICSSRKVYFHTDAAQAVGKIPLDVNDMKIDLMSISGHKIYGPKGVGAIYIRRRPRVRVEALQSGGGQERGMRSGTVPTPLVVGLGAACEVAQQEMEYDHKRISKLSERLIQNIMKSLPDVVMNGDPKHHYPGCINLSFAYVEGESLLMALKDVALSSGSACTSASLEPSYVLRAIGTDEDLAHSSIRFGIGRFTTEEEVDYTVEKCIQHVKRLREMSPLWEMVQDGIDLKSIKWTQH

With `COc1cc(/C=N/NC(=O)COc2ccc(Cl)cc2Cl)ccc1O` [Compound 53], in experiment [1], the “SDH activity compared to the control group” value is reported as 81.8%. In addition, the IC50 on NFS1 C158A is 114 ± 3.45 µM; with BEAS-2B cells, 31 ± 3.98 µM; in the experiment on A549 cells [3] (Homo sapiens, A549, CCK-8, 72 h), 16.3 ± 1.92 µM. Also, the “ACO activity compared to the control group” value with aconitase (ACO) was 51.3%. Also, in the experiment with A549 cells [2], the cellular iron content entry is listed as “significantly increased the cellular iron content”. Also, the “anti-proliferative activity in the presence of Erastin” value with A549 cells [3] (A549 cells, Compound 53 50 µM with 2.5 µM Erastin, versus without) is reported as “increased remarkably”.
